We go through 22 compounds from patent US20260274833A1 (NiKang Therapeutics, Inc., priority 2022, published 2026).

For the assay, the target named is T1, CDK2 (Homo sapiens, UniProt P24941).
T1 construct: endogenous in cells; host or cells: OVCAR3 cells
Description: Phospho-RB measurement in OVCAR3 cells (HTRF phospho-RB cellular kit). The assay is classed as cell-based. Particulars: inhibition of RB phosphorylation at S807/811 (HTRF, TR-FRET ratio 665/620), 24 h compound treatment, 0.3 to 10,000 nM. The essentials: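 IC50 came from a four-parameter logistic fit of the DMSO-normalized TR-FRET ratio (665/620 nm). That ratio reflects RB phosphorylation at S807/811, read with an HTRF antibody pair 4 h after adding lysate at room temperature.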
A general note: Time-resolved FRET reads energy transfer from a long-lived donor to a nearby acceptor.
`CN(C)CCN(C)S(=O)(=O)N1CCC(Nc2nccc(-c3sc(C(C)(C)C)nc3-c3cccc(NS(=O)(=O)N4Cc5ccccc5C4)c3F)n2)CC1` [Example 156, N-(3-(2-(tert-butyl)-5-(2-((1-(N-(2-(dimethylamino)ethyl)-N-methyl-sulfamoyl)piperidin-4-yl)amino)-pyrimidin-4-yl)thiazol-4-yl)-2-fluoro-phenyl)isoindoline-2-sulfonamide]: the concentration for half-maximal inhibition (IC50) came to 90.3 nM.

On to `COCCOCCN1CCN(c2ccc(Nc3nccc(-c4sc(C(C)(C)C)nc4-c4cccc(NS(=O)(=O)N5CCc6ccc(C#N)cc65)c4F)n3)cc2)CC1` [Example 234, N-(3-(2-(tert-butyl)-5-(2-((4-(4-(2-(2-methoxy-ethoxy)ethyl)piperazin-1-yl)phenyl)amino)-pyrimidin-4-yl)thiazol-4-yl)-2-fluorophenyl)-6-cyanoindoline-1-sulfonamide], for which the IC50 turned out to be 1200 nM.

In the case of `O=S1(=O)CC2(CC(Nc3nccc(-c4sc(C56CC(C5)C6)nc4-c4cccc(NS(=O)(=O)N5CCc6ccc(OC(F)F)cc65)c4F)n3)C2)C1` [Example 48, N-(3-(2-(bicyclo [1.1.1]pentan-1-yl)-5-(2-((2,2-dioxido-2-thiaspiro[3.3]heptan-6-yl)amino)-pyrimidin-4-yl)thiazol-4-yl)-2-fluorophenyl)-6-(difluoromethoxy)-indoline-1-sulfonamide], the IC50 is 139 nM.

Regarding `CN1CCN(S(=O)(=O)N2CCC(Nc3nccc(-c4sc(C(C)(C)C)nc4-c4cccc(NS(=O)(=O)N5Cc6cccnc6C5)c4F)n3)CC2)CC1` [Example 127, N-(3-(2-(tert-butyl)-5-(2-((1-((4-methyl-piperazin-1-yl)sulfonyl)piperidin-4-yl)amino)-pyrimidin-4-yl)thiazol-4-yl)-2-fluorophenyl)-5,7-dihydro-6H-pyrrolo[3,4-b] pyridine-6-sulfonamide], the half-inhibitory concentration (IC50) is 208 nM.

Turning to `CC(C)(C)c1nc(-c2cccc(NS(=O)(=O)N3CCC4(CC4)C3)c2F)c(-c2ccnc(NC3CCN(S(=O)(=O)N4CCNCC4)CC3)n2)s1` [Example 175, N-(3-(2-(tert-butyl)-5-(2-((1-(piperazin-1-ylsulfonyl)piperidin-4-yl)amino)-pyrimidin-4-yl)thiazol-4-yl)-2-fluoro-phenyl)-5-azaspiro [2.4]heptane-5-sulfonamide], the half-inhibitory concentration (IC50) was found to be 943 nM.

For the compound `CNCc1ccc2c(c1)N(S(=O)(=O)Nc1cccc(-c3nc(C(C)(C)C)sc3-c3ccnc(NC4CCN(S(C)(=O)=O)CC4)n3)c1F)CC2` [Example 160, N-(3-(2-(tert-butyl)-5-(2-((1-(methylsulfonyl)-piperidin-4-yl)amino)-pyrimidin-4-yl)thiazol-4-yl)-2-fluoro-phenyl)-6-((methylamino)methyl)-indoline-1-sulfonamide], the 50% inhibitory concentration (IC50) worked out at 4040 nM.

With `CN(C1CC1)S(=O)(=O)Nc1cccc(-c2nc(C(C)(C)C)sc2-c2ccnc(NC3CCN(S(=O)(=O)N4CCNCC4)CC3)n2)c1F` [Example 108, N-(3-(2-(tert-butyl)-5-(2-((1-(piperazin-1-yl-sulfonyl)piperidin-4-yl)amino)-pyrimidin-4-yl)thiazol-4-yl)-2-fluoro-phenyl)(N-methyl-N-cyclopro-pylamine)-sulfonamide], the 50% inhibitory concentration (IC50) stood at 2070 nM.

As for `CC1(c2nc(-c3cccc(NS(=O)(=O)N4CCc5ccc(C#N)cc54)c3F)c(-c3ccnc(N[C@H]4[C@@H]5CS(=O)(=O)C[C@@H]54)n3)s2)CCOCC1` [Example 10], the IC50 is 73 nM.

For the compound `CN(C)c1ccc2c(c1)N(S(=O)(=O)Nc1cccc(-c3nc(C45CC(C4)C5)sc3-c3ccnc(NC4CC5(C4)CS(=O)(=O)C5)n3)c1F)CC2` [Example 22, N-(3-(2-(bicyclo [1.1.1]pentan-1-yl)-5-(2-((2,2-dioxido-2-thiaspiro [3.3]heptan-6-yl)amino)-pyrimidin-4-yl)thiazol-4-yl)-2-fluorophenyl)-6-(dimethylamino)-indoline-1-sulfonamide], the IC50 stood at 477 nM.

Turning to `CN1CCN(c2ccc(Nc3nccc(-c4sc(C(C)(C)C)nc4-c4cccc(NS(=O)(=O)N5CCc6ccc(C#N)cc65)c4F)n3)cc2)CC1` [Example 249, N-(3-(2-(tert-butyl)-5-(2-((4-(4-methyl-piperazin-1-yl)phenyl)amino)pyrimidin-4-yl)-thiazol-4-yl)-2-fluoro-phenyl)-6-cyanoindoline-1-sulfonamide], the IC50 turned out to be 684 nM.

Take `O=S1(=O)CC2(CC(Nc3nccc(-c4sc(C56CC(C5)C6)nc4-c4cccc(NS(=O)(=O)N5C6CCC5CC(F)(F)C6)c4F)n3)C2)C1` [Example 266, N-(3-(2-(bicyclo [1.1.1]pentan-1-yl)-5-(2-((2,2-dioxido-2-thiaspiro[3.3]heptan-6-yl)amino)-pyrimidin-4-yl)thiazol-4-yl)-2-fluorophenyl)-3,3-difluoro-8-azabicyclo-[3.2.1]octane-8-sulfonamide]: the IC50 was found to be 8470 nM.

In the case of `CNC(=O)c1ccc2c(c1)N(S(=O)(=O)Nc1cccc(-c3nc(C(C)(C)C)sc3-c3ccnc(NC4CCN(S(C)(=O)=O)CC4)n3)c1F)CC2` [Example 151, 1-(N-(3-(2-(tert-butyl)-5-(2-((1-(methyl-sulfonyl)piperidin-4-yl)amino)pyrimidin-4-yl)thiazol-4-yl)-2-fluorophenyl)-sulfamoyl)-N-methylindoline-6-carboxamide], the concentration for half-maximal inhibition (IC50) came out at 355 nM.

In the case of `CN(C)CCOc1ccc2c(c1)N(S(=O)(=O)Nc1cccc(-c3nc(C(C)(C)C)sc3-c3ccnc(NC4CCN(S(C)(=O)=O)CC4)n3)c1F)CC2` [Example 188, N-(3-(2-(tert-butyl)-5-(2-((1-(methylsulfonyl)-piperidin-4-yl)amino)-pyrimidin-4-yl)thiazol-4-yl)-2-fluoro-phenyl)-6-(2-(dimethylamino)-ethoxy)-indoline-1-sulfonamide], the concentration for half-maximal inhibition (IC50) was found to be 1660 nM.

As for `CC(C)(C)c1nc(-c2cccc(NS(=O)(=O)N3Cc4cccc(C(F)(F)F)c4C3)c2F)c(-c2ccnc(NC3CC4(C3)CS(=O)(=O)C4)n2)s1` [Example 201, N-(3-(2-(tert-butyl)-5-(2-((2,2-dioxido-2-thiaspiro[3.3]heptan-6-yl)amino)-pyrimidin-4-yl)thiazol-4-yl)-2-fluorophenyl)-4-(trifluoromethyl)-isoindoline-2-sulfonamide], the IC50 came out at 76.3 nM.

Consider `C[C@@H]1Cc2ccccc2N1S(=O)(=O)Nc1cccc(-c2nc(C(C)(C)C)sc2-c2ccnc(NC3CCN(S(=O)(=O)N4CCNCC4)CC3)n2)c1F` [Example 140, (R)-N-(3-(2-(tert-butyl)-5-(2-((1-(piperazin-1-ylsulfonyl)piperidin-4-yl)amino)pyrimidin-4-yl)thiazol-4-yl)-2-fluorophenyl)-2-methyl-indoline-1-sulfonamide], for which the IC50 is 622 nM.

`CC(C)(C)c1nc(-c2cccc(NS(=O)(=O)N3CCc4c(CN5CCOCC5)cccc43)c2F)c(-c2ccnc(NC3CCN(S(C)(=O)=O)CC3)n2)s1` [Example 245, N-(3-(2-(tert-butyl)-5-(2-((1-(methylsulfonyl)piperidin-4-yl)amino)-pyrimidin-4-yl)thiazol-4-yl)-2-fluorophenyl)-4-(morpholinomethyl)-indoline-1-sulfonamide]: the IC50 was 338 nM.

Consider `CC1(c2nc(-c3cccc(NS(=O)(=O)N4CCc5ccc(C#N)cc54)c3F)c(-c3ccnc(NC4CC5CS(=O)(=O)CC5C4)n3)s2)CCOCC1` (stereo not shown) [Example 240, 6-cyano-N-(3-(5-(2-((2,2-dioxidohexa-hydro-1H-cyclopenta[c]thiophen-5-yl)amino)-pyrimidin-4-yl)-2-(4-methyl-tetrahydro-2H-pyran-4-yl)thiazol-4-yl)-2-fluorophenyl)-indoline-1-sulfonamide], for which the half-inhibitory concentration (IC50) was found to be 38.2 nM.

In the case of `CC(C)(C)c1nc(-c2cccc(NS(=O)(=O)N3CCc4ccncc43)c2F)c(-c2ccnc(NC3CCN(S(C)(=O)=O)CC3)n2)s1` [Example 154, N-(3-(2-(tert-butyl)-5-(2-((1-(methylsulfonyl)-piperidin-4-yl)amino)-pyrimidin-4-yl)thiazol-4-yl)-2-fluoro-phenyl)-2,3-dihydro-1H-pyrrolo[2,3-c]-pyridine-1-sulfonamide], the 50% inhibitory concentration (IC50) is 685 nM.

With `CN1CC2CCC(C1)N2c1nc(-c2cccc(NS(=O)(=O)N3CCc4ccc(Cl)cc43)c2F)c(-c2ccnc(NC3CC4(C3)CS(=O)(=O)C4)n2)s1` [Example 43, 6-chloro-N-(3-(5-(2-((2,2-dioxido-2-thiaspiro[3.3]heptan-6-yl)amino)-pyrimidin-4-yl)-2-(3-methyl-3,8-diazabicyclo [3.2.1]octan-8-yl)thiazol-4-yl)-2-fluorophenyl) indoline-1-sulfonamide], the IC50 was found to be 27.1 nM.

As for `CS(=O)(=O)[C@H]1CC[C@H](Nc2nccc(-c3sc(C4(C(F)(F)F)CC4)nc3-c3cccc(NS(=O)(=O)N4CCc5ccc(Cl)cc54)c3F)n2)CC1` [Example 283, 6-chloro-N-(2-fluoro-3-(5-(2-(((1r,4r)-4-(methylsulfonyl)cyclohexyl)amino)pyrimidin-4-yl)-2-(1-(trifluoromethyl)-cyclopropyl)thiazol-4-yl)phenyl)-indoline-1-sulfonamide], the half-maximal inhibitory concentration (IC50) came out at 200 nM.

Turning to `CC(C)(C)c1nc(-c2cccc(NS(=O)(=O)N3CCc4ccc(S(C)(=O)=O)cc43)c2F)c(-c2ccnc(NC3CC4(C3)CS(=O)(=O)C4)n2)s1` [Example 261, N-(3-(2-(tert-butyl)-5-(2-((2,2-dioxido-2-thiaspiro[3.3]heptan-6-yl)amino)-pyrimidin-4-yl)thiazol-4-yl)-2-fluoro-phenyl)-6-(methylsulfonyl)-indoline-1-sulfonamide], the concentration for half-maximal inhibition (IC50) came to 694 nM.

For the compound `CN(C)Cc1ccc2c(c1)CCN2S(=O)(=O)Nc1cccc(-c2nc(C(C)(C)C)sc2-c2ccnc(NC3CCN(S(C)(=O)=O)CC3)n2)c1F` [Example 189, N-(3-(2-(tert-butyl)-5-(2-((1-(methylsulfonyl)-piperidin-4-yl)amino)-pyrimidin-4-yl)thiazol-4-yl)-2-fluoro-phenyl)-5-((dimethylamino)-methyl)-indoline-1-sulfonamide], the IC50 was 1550 nM.

The IC50 is the point on the concentration scale where inhibition reaches its midpoint.
